Here are results for 2 molecules from ChEMBL document CHEMBL5678818, “Discovery of potent SOS1 inhibitors that block RAS activation via disruption of the RAS-SOS1 interaction” (Proc Natl Acad Sci U S A, 2019).

SMILES strings stand for the structures.

The target of assay [1] is T1, Son of sevenless homolog 1 (Homo sapiens, UniProt Q07889).
T1 sequence (Q07889 whole entry): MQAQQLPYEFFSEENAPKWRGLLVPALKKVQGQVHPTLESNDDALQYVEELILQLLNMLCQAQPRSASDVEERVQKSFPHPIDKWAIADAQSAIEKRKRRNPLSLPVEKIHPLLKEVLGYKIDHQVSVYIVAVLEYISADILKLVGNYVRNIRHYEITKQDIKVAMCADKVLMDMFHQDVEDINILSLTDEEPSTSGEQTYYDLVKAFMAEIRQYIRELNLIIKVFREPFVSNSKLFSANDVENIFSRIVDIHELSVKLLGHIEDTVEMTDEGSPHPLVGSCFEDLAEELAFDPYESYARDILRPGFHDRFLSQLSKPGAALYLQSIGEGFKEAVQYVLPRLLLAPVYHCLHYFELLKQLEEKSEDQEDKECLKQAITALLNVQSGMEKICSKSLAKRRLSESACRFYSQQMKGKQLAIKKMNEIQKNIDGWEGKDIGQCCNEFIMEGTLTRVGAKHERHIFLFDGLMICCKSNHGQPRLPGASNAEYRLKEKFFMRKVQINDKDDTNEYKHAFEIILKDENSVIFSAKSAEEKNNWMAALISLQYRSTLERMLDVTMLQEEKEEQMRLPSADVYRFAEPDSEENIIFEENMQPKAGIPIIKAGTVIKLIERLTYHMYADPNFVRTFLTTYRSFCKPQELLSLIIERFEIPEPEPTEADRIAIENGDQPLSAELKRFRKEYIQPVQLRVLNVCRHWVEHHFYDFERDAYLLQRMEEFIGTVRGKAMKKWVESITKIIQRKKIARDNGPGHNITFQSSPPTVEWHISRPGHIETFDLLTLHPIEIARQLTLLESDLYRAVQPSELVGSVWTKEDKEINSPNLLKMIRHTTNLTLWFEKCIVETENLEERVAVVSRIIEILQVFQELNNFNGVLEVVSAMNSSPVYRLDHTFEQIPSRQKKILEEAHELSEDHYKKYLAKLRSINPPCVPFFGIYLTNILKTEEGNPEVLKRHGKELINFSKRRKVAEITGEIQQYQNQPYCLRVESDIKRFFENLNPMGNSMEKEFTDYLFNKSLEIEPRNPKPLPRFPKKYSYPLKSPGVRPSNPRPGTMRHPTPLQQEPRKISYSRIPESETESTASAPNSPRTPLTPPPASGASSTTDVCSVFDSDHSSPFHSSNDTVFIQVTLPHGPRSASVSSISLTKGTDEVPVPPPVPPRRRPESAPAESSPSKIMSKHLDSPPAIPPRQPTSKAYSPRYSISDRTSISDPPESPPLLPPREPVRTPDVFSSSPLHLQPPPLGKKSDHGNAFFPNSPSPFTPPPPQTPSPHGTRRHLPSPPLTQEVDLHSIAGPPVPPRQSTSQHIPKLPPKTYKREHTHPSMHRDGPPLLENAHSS
Put plainly: Inhibition of SOS1 in human MOLM-13 cells assessed as reduction in pERK level incubated for 60 mins by HTRF analysis. The class given is cell-based.

Assay [2] concerns the target T2, Ephrin type-B receptor 1 (Homo sapiens) (UniProt P54762).
T2 sequence (whole entry): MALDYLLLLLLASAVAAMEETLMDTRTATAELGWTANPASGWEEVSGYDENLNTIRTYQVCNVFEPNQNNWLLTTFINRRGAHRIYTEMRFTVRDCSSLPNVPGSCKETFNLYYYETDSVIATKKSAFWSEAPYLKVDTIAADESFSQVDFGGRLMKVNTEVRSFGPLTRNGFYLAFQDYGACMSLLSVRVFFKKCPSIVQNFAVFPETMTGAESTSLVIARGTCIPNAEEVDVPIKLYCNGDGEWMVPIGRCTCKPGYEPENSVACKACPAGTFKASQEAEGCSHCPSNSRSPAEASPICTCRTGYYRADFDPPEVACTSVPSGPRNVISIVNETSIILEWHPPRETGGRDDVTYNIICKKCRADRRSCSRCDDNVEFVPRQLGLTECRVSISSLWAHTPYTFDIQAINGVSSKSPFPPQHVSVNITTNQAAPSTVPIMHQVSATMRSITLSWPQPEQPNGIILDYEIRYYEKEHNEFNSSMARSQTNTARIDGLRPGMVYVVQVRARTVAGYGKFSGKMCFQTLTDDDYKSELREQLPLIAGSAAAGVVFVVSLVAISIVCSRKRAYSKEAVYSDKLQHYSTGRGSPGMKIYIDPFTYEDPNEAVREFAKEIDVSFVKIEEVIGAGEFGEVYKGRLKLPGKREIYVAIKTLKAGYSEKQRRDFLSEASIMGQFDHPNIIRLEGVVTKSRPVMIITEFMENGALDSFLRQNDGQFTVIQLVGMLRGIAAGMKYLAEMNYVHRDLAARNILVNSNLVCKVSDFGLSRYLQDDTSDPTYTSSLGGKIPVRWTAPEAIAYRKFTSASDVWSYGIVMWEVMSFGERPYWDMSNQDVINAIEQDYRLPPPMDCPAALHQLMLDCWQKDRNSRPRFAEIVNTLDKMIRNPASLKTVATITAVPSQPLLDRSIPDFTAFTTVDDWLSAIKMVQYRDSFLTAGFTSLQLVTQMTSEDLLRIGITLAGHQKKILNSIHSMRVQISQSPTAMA
Kind of assay: Inhibition of EPHB1 (unknown origin) assessed as residual activity at 100 nM by KINOMEscan analysis relative to control.

The target in assay [3] is Serine/threonine-protein kinase 33 (Homo sapiens) (UniProt Q9BYT3). Kind of assay: Inhibition of STK33 (unknown origin) assessed as residual activity at 100 nM by KINOMEscan analysis relative to control.
For assay [4], the system named is Epidermal growth factor receptor (Homo sapiens), P00533 [UNDEFINED MUTATION]. Put plainly: Inhibition of EGFR L747-T751del/Sins mutant (unknown origin) assessed as residual activity at 100 nM by KINOMEscan analysis relative to control.
Assay [5] has as its target Tyrosine-protein kinase Fyn (Homo sapiens) (UniProt P06241). Kind of assay: Inhibition of FYN (unknown origin) assessed as residual activity at 100 nM by KINOMEscan analysis relative to control.
Assay [6] addresses Serine/threonine-protein kinase RIO2 (Homo sapiens) (UniProt Q9BVS4). Kind of assay: Inhibition of RIOK2 (unknown origin) assessed as residual activity at 100 nM by KINOMEscan analysis relative to control.

Epidermal growth factor receptor (Homo sapiens), P00533 [UNDEFINED MUTATION], sequence (P00533 whole entry, looked up, stated change not applied): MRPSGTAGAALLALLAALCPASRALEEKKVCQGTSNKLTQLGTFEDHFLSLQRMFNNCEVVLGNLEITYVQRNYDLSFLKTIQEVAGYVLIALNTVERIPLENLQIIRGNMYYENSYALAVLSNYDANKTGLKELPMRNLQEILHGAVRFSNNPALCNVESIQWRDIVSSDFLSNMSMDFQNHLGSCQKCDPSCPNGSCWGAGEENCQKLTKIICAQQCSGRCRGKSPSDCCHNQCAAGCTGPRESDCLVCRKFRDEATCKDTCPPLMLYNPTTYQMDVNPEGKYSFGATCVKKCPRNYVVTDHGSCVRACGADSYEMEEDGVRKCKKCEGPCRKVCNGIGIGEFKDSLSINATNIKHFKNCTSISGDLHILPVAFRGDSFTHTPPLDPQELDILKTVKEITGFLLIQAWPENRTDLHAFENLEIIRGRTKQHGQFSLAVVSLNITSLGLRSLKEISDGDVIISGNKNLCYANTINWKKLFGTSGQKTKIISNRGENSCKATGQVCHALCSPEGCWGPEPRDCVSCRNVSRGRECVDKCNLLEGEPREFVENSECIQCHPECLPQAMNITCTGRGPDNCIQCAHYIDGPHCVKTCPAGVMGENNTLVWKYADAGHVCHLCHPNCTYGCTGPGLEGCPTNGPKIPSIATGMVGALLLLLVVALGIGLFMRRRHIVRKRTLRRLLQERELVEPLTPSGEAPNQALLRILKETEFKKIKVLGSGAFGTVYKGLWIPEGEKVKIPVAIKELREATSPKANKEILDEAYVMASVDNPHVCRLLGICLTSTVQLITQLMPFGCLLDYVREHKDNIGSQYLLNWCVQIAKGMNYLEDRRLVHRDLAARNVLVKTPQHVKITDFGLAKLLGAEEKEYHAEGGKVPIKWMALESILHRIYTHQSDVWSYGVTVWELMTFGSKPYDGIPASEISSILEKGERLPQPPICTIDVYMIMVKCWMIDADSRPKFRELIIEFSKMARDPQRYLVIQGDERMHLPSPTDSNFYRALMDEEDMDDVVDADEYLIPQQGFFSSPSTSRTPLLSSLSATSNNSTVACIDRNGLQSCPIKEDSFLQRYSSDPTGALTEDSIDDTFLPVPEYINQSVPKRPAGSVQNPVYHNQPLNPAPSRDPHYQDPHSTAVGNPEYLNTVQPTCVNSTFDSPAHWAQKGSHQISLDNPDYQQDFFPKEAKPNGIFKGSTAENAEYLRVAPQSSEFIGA
Serine/threonine-protein kinase RIO2 (Homo sapiens), sequence (Q9BVS4 whole entry, looked up): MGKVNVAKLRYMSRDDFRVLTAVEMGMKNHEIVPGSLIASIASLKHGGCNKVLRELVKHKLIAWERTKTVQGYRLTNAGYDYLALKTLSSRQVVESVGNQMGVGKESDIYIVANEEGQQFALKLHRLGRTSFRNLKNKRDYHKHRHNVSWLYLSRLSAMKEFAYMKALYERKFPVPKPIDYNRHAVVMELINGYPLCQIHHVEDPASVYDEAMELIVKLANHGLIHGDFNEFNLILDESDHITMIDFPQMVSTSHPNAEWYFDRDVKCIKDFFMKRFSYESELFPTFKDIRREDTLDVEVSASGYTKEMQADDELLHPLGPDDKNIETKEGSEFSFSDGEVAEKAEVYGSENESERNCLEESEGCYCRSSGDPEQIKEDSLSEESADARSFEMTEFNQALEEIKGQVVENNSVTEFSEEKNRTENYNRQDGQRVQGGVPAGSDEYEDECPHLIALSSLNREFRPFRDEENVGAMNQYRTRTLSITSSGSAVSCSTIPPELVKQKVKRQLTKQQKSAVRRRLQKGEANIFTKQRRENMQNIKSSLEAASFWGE
Tyrosine-protein kinase Fyn (Homo sapiens), sequence (P06241 2-537 limits assumed): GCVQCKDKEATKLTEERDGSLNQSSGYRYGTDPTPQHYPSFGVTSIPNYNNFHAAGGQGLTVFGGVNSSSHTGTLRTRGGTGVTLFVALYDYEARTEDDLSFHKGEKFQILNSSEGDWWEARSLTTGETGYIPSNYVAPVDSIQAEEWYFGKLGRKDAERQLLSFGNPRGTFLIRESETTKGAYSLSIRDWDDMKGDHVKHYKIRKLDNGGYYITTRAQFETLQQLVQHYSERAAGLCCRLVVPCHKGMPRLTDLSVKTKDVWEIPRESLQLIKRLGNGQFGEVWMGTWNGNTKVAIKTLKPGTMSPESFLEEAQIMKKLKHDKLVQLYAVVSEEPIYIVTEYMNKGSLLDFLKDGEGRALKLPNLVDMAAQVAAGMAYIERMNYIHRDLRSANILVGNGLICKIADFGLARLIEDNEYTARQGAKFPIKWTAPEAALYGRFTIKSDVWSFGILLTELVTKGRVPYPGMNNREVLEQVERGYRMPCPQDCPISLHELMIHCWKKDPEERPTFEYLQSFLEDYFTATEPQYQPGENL
Serine/threonine-protein kinase 33 (Homo sapiens), sequence (Q9BYT3 whole entry, looked up): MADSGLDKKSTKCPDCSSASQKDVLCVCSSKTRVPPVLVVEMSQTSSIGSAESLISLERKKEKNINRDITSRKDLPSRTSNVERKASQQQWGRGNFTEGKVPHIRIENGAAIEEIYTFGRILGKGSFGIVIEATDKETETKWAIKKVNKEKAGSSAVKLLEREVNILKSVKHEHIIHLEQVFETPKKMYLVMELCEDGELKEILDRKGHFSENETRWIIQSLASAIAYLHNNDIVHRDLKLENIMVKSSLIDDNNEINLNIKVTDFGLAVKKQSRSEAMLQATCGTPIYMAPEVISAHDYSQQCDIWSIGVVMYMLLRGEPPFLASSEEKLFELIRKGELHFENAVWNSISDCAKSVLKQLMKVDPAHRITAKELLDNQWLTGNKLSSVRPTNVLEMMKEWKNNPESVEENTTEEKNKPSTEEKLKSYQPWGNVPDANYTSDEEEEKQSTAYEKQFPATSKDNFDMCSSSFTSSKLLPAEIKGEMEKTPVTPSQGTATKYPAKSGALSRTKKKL

As for `COc1cc2nc(C)nc(NC(C)c3ccc(-c4cnc5n4CCC5)s3)c2cc1OC` (stereo unspecified), the IC50 (commonly the concentration needed to halve the response being measured) in assay [1] turned out to be 450 nM.

Regarding `COc1cc2ncnc(N[C@H](C)c3cccc4ccccc34)c2cc1OC`, the Activity in assay [2] is 83%; in assay [3] it was 70%; in assay [4] it was 80%; in assay [5], 85%; in assay [6], 65%.
